Tested on: EcR-293 cells
Experiment: MKL1 localization by immunofluorescence after LPA stimulation
Type: cell-based
Conditions: 50 μm LPA, 20 min
Description: Cells were grown on 4-compartment plastic tissue culture dishes (Greiner Bio-One, Kremsmünster, Austria) and fixed with 100% methanol at −20° C. for 15 min. Anti-MKL1 total mAb hybridoma supernatant was diluted 1:4 in PBS and incubated on the cells for 1.5 h at RT. After washing with PBS, fluorescent secondary antibodies were applied for 1.5 h at RT to visualize the MKL1 staining (1:1000 in PBS). After washing, coverslips were mounted on the cells using ProLong Gold Antifade reagent (life Technologies/Invitrogen).
Oleoyl-α-lysophosphatidic acid (LPA) was purchased from Sigma-Aldrich (Buchs, Switzerland) and stock solutions were prepared in 1% BSA (Sigma-Aldrich)/PBS. EcR-293 cells stably overexpressing 5′UTR-MKL1_S or 5′UTR-MKL1_L were seeded on plastic dishes precoated with 0.4 mg/ml poly-L-lysine (Sigma-Aldrich) and starved overnight with D-MEM/0.3% FBS. After 18 h starvation, the cells were treated with 50 μm LPA for 0, 5, 20, or 60 min, and subsequently stained with anti-MKL1 total mAb (see immunofluorescence staining). After staining, MKL1 staining of strongly overexpressing cells was classified as predominantly cytosolic (nucleus clearly distinguishable as unstained), equally distributed, or predominantly nuclear (nucleus clearly distinguishable as stained).

## Oleoyl-α-lysophosphatidic acid [LPA]
Starved EcR-293 cells expressing MKL1_L
  cells showing nuclear staining: very few
Starved EcR-293 cells expressing MKL1_S
  cells showing partial or full nuclear MKL1 accumulation: two thirds

Reference: patent US20150218238A1, “TREATING DISEASES BY MODULATING A SPECIFIC ISOFORM OF MKL1” (NOVARTIS FORSCHUNGSSTIFTUNG, ZWEIGNIEDERLASSUNG FRIEDRICH …, priority 2012, published 2015)
